Data as given in US20160367623A1, “AGONISTS OF GUANYLATE CYCLASE USEFUL FOR THE TREATMENT OF GASTROINTESTINAL DISORDERS, INFLAMMATION, CANCER AND OTHER DISORDERS” (priority 2015, published 2016).
Bridge positions count the residues as written; N and C are the ends. Ends that are not written are not given here.

Test system: patients with chronic idiopathic constipation (CIC)
Test: Second phase 3 CIC trial: CSBM weekly responders by week
Assay type: in vivo, human
Conditions: MRA
Source text: Both trials include a two-week pre-treatment baseline period, a 12-week treatment period, and a two-week post-treatment period. The phase 3 CIC program was designed to support regulatory submission in the U. S.
The primary endpoint for both trials is the proportion of durable overall responders (%), which is the current regulatory endpoint required for U.S. approval in CIC. The FDA has defined a durable overall responder as a patient who fulfills both ≧3 complete spontaneous bowel movements (CSBMs) per week plus an increase of ≧1 CSBM from baseline in the same week, for 9 out of the 12 treatment weeks. In addition, the same patient must be an overall responder for at least 3 of the last 4 treatment weeks in order to be considered a durable overall responder.
Patients were selected using Rome 3 criteria modified for CIC and had (1) fewer than 3 defecations per week, (2) loose stools occurring rarely without laxatives, (3) inadequate criteria for irritable bowel syndrome with constipation (IBS-C), and (4) at least two of the following applied to at least 25% of defecations: (a) straining during evacuation, (b) lumpy or hard stools, (c) sensation of anorectal obstruction or blockage. Rome 3 requires patients to fulfill the criteria for the last 3 months with symptom onset at least 6 months prior to diagnosis.

[1] = Week 6, 3 mg, ITT Population-Excluding Duplicate Patients
[2] = Week 6, 6 mg, ITT Population-Excluding Duplicate Patients
[3] = Week 6, Active Combined, ITT Population-Excluding Duplicate Patients
[4] = Week 6, Active Combined, ITT Population
[5] = Week 7, 3 mg, ITT Population-Excluding Duplicate Patients
[6] = Week 7, 6 mg, ITT Population-Excluding Duplicate Patients
[7] = Week 7, Active Combined, ITT Population-Excluding Duplicate Patients
[8] = Week 7, Active Combined, ITT Population
[9] = Week 8, 3 mg, ITT Population-Excluding Duplicate Patients
[10] = Week 8, 6 mg, ITT Population-Excluding Duplicate Patients
[11] = Week 8, Active Combined, ITT Population-Excluding Duplicate Patients
[12] = Week 8, Active Combined, ITT Population
[13] = Week 9, 3 mg, ITT Population-Excluding Duplicate Patients
[14] = Week 9, 6 mg, ITT Population-Excluding Duplicate Patients

Asn^1-Asp^2-Glu^3-Cys^4-Glu^5-Leu^6-Cys^7-Val^8-Asn^9-Val^10-Ala^11-Cys^12-Thr^13-Gly^14-Cys^15-Leu^16 (NDECELCVNVACTGCL; disulfide 4-12, 7-15) [Plecanatide, uroguanylin analogue, guanylate cyclase-C agonist; (C4:C12, C7:C15) bicycle peptide]
Non-Responders, n (%) (Week 5, Active Combined, ITT Population): 605 (67.8) n (%) | Difference in Proportions (adjusted) (Week 6, 3 mg minus placebo, All Randomized (includes Duplicate Patients)): 0.100 | Odds Ratio (adjusted) (Week 6, 3 mg vs placebo, All Randomized (includes Duplicate Patients)): 0.593 | CSBM Weekly Responders, n (%) (Week 6, 3 mg, ITT Population): 137 (30.9) n (%) | Non-Responders, n (%) (Week 6, 3 mg, ITT Population): 306 (69.1) n (%) | CSBM Weekly Responders, n (%) [1]: 136 (31.3) n (%) | Non-Responders, n (%) [1]: 298 (68.7) n (%) | Difference in Proportions (adjusted) (Week 6, 6 mg minus placebo, All Randomized (includes Duplicate Patients)): 0.110 | Odds Ratio (adjusted) (Week 6, 6 mg vs placebo, All Randomized (includes Duplicate Patients)): 0.566 | CSBM Weekly Responders, n (%) (Week 6, 6 mg, ITT Population): 146 (32.5) n (%) | Non-Responders, n (%) (Week 6, 6 mg, ITT Population): 303 (67.5) n (%) | CSBM Weekly Responders, n (%) [2]: 146 (33.0) n (%) | Non-Responders, n (%) [2]: 297 (67.0) n (%) | Difference in Proportions (adjusted) (Week 6, 3 mg minus placebo, ITT Population-Excluding Duplicate Patients): 0.096 | Difference in Proportions (adjusted) (Week 6, 3 mg minus placebo, ITT Population): 0.093 | Odds Ratio (adjusted) (Week 6, 3 mg vs placebo, ITT Population-Excluding Duplicate Patients): 0.610 | Odds Ratio (adjusted) (Week 6, 3 mg vs placebo, ITT Population): 0.615 | Difference in Proportions (adjusted) (Week 6, 6 mg minus placebo, ITT Population-Excluding Duplicate Patients): 0.112 | Difference in Proportions (adjusted) (Week 6, 6 mg minus placebo, ITT Population): 0.109 | Odds Ratio (adjusted) (Week 6, 6 mg vs placebo, ITT Population-Excluding Duplicate Patients): 0.565 | Odds Ratio (adjusted) (Week 6, 6 mg vs placebo, ITT Population): 0.571 | CSBM Weekly Responders, n (%) [3]: 282 (32.2) n (%) | Non-Responders, n (%) [3]: 595 (67.8) n (%) | CSBM Weekly Responders, n (%) [4]: 283 (31.7) n (%) | Non-Responders, n (%) [4]: 609 (68.3) n (%) | Difference in Proportions (adjusted) (Week 7, 3 mg minus placebo, All Randomized (includes Duplicate Patients)): 0.091 | Odds Ratio (adjusted) (Week 7, 3 mg vs placebo, All Randomized (includes Duplicate Patients)): 0.634 | CSBM Weekly Responders, n (%) (Week 7, 3 mg, ITT Population): 145 (32.7) n (%) | Non-Responders, n (%) (Week 7, 3 mg, ITT Population): 298 (67.3) n (%) | CSBM Weekly Responders, n (%) [5]: 144 (33.2) n (%) | Non-Responders, n (%) [5]: 290 (66.8) n (%) | Difference in Proportions (adjusted) (Week 7, 6 mg minus placebo, All Randomized (includes Duplicate Patients)): 0.075 | Odds Ratio (adjusted) (Week 7, 6 mg vs placebo, All Randomized (includes Duplicate Patients)): 0.681 | CSBM Weekly Responders, n (%) (Week 7, 6 mg, ITT Population): 140 (31.2) n (%) | Non-Responders, n (%) (Week 7, 6 mg, ITT Population): 309 (68.8) n (%) | CSBM Weekly Responders, n (%) [6]: 140 (31.6) n (%) | Non-Responders, n (%) [6]: 303 (68.4) n (%) | Difference in Proportions (adjusted) (Week 7, 3 mg minus placebo, ITT Population-Excluding Duplicate Patients): 0.089 | Difference in Proportions (adjusted) (Week 7, 3 mg minus placebo, ITT Population): 0.085 | Odds Ratio (adjusted) (Week 7, 3 mg vs placebo, ITT Population-Excluding Duplicate Patients): 0.645 | Odds Ratio (adjusted) (Week 7, 3 mg vs placebo, ITT Population): 0.659 | Difference in Proportions (adjusted) (Week 7, 6 mg minus placebo, ITT Population-Excluding Duplicate Patients): 0.074 | Difference in Proportions (adjusted) (Week 7, 6 mg minus placebo, ITT Population): 0.069 | Odds Ratio (adjusted) (Week 7, 6 mg vs placebo, ITT Population-Excluding Duplicate Patients): 0.693 | Odds Ratio (adjusted) (Week 7, 6 mg vs placebo, ITT Population): 0.707 | CSBM Weekly Responders, n (%) [7]: 284 (32.4) n (%) | Non-Responders, n (%) [7]: 593 (67.6) n (%) | CSBM Weekly Responders, n (%) [8]: 285 (32.0) n (%) | Non-Responders, n (%) [8]: 607 (68.0) n (%) | Difference in Proportions (adjusted) (Week 8, 3 mg minus placebo, All Randomized (includes Duplicate Patients)): 0.076 | Odds Ratio (adjusted) (Week 8, 3 mg vs placebo, All Randomized (includes Duplicate Patients)): 0.687 | CSBM Weekly Responders, n (%) (Week 8, 3 mg, ITT Population): 145 (32.7) n (%) | Non-Responders, n (%) (Week 8, 3 mg, ITT Population): 298 (67.3) n (%) | CSBM Weekly Responders, n (%) [9]: 144 (33.2) n (%) | Non-Responders, n (%) [9]: 290 (66.8) n (%) | Difference in Proportions (adjusted) (Week 8, 6 mg minus placebo, All Randomized (includes Duplicate Patients)): 0.067 | Odds Ratio (adjusted) (Week 8, 6 mg vs placebo, All Randomized (includes Duplicate Patients)): 0.716 | CSBM Weekly Responders, n (%) (Week 8, 6 mg, ITT Population): 144 (32.1) n (%) | Non-Responders, n (%) (Week 8, 6 mg, ITT Population): 305 (67.9) n (%) | CSBM Weekly Responders, n (%) [10]: 143 (32.3) n (%) | Non-Responders, n (%) [10]: 300 (67.7) n (%) | Difference in Proportions (adjusted) (Week 8, 3 mg minus placebo, ITT Population-Excluding Duplicate Patients): 0.073 | Difference in Proportions (adjusted) (Week 8, 3 mg minus placebo, ITT Population): 0.069 | Odds Ratio (adjusted) (Week 8, 3 mg vs placebo, ITT Population-Excluding Duplicate Patients): 0.703 | Odds Ratio (adjusted) (Week 8, 3 mg vs placebo, ITT Population): 0.717 | Difference in Proportions (adjusted) (Week 8, 6 mg minus placebo, ITT Population-Excluding Duplicate Patients): 0.064 | Difference in Proportions (adjusted) (Week 8, 6 mg minus placebo, ITT Population): 0.062 | Odds Ratio (adjusted) (Week 8, 6 mg vs placebo, ITT Population-Excluding Duplicate Patients): 0.731 | Odds Ratio (adjusted) (Week 8, 6 mg vs placebo, ITT Population): 0.738 | CSBM Weekly Responders, n (%) [11]: 287 (32.7) n (%) | Non-Responders, n (%) [11]: 590 (67.3) n (%) | CSBM Weekly Responders, n (%) [12]: 289 (32.4) n (%) | Non-Responders, n (%) [12]: 603 (67.6) n (%) | Difference in Proportions (adjusted) (Week 9, 3 mg minus placebo, All Randomized (includes Duplicate Patients)): 0.084 | Odds Ratio (adjusted) (Week 9, 3 mg vs placebo, All Randomized (includes Duplicate Patients)): 0.656 | CSBM Weekly Responders, n (%) (Week 9, 3 mg, ITT Population): 147 (33.2) n (%) | Non-Responders, n (%) (Week 9, 3 mg, ITT Population): 296 (66.8) n (%) | CSBM Weekly Responders, n (%) [13]: 146 (33.6) n (%) | Non-Responders, n (%) [13]: 288 (66.4) n (%) | Difference in Proportions (adjusted) (Week 9, 6 mg minus placebo, All Randomized (includes Duplicate Patients)): 0.073 | Odds Ratio (adjusted) (Week 9, 6 mg vs placebo, All Randomized (includes Duplicate Patients)): 0.691 | CSBM Weekly Responders, n (%) (Week 9, 6 mg, ITT Population): 141 (31.4) n (%) | Non-Responders, n (%) (Week 9, 6 mg, ITT Population): 308 (68.6) n (%) | CSBM Weekly Responders, n (%) [14]: 140 (31.6) n (%) | Non-Responders, n (%) [14]: 303 (68.4) n (%) | Difference in Proportions (adjusted) (Week 9, 3 mg minus placebo, ITT Population-Excluding Duplicate Patients): 0.082 | Difference in Proportions (adjusted) (Week 9, 3 mg minus placebo, ITT Population): 0.082 | Odds Ratio (adjusted) (Week 9, 3 mg vs placebo, ITT Population-Excluding Duplicate Patients): 0.673 | Odds Ratio (adjusted) (Week 9, 3 mg vs placebo, ITT Population): 0.67 | Difference in Proportions (adjusted) (Week 9, 6 mg minus placebo, ITT Population-Excluding Duplicate Patients): 0.062 | Difference in Proportions (adjusted) (Week 9, 6 mg minus placebo, ITT Population): 0.065 | Odds Ratio (adjusted) (Week 9, 6 mg vs placebo, ITT Population-Excluding Duplicate Patients): 0.738
